Test results: publication PMC8582824, “Targeting DDX3X Helicase Activity with BA103 Shows Promising Therapeutic Effects in Preclinical Glioblastoma Models” (Cancers, 2021)

How the values were obtained:
[1] = system: U87 cells intracerebral xenograft; assay: Orthotopic U87 xenograft model of GBM; type: in vivo, CD1 nude mice; settings: 50 mg/kg i.p., three times per week for three weeks, observed two months
Protocol: In CD1 nude mice, 3 × 10^3 U87 cells were injecting intracerebrally using a stereotactic frame (Stoelting Europe, Dublin, Ireland). Optimization of the protocol for treatment procedures was based on previously published data performed in the same experimental in vivo model. A volume of 3 μL was inoculated by a sterile Hamilton syringe with a 26-gauge needle inserted at a depth of 3.0 mm from the skull surface. Five days after injection, animals were randomized to control and treated groups. […] For in vivo administration, BA103 was administered i.p. in a saline solution containing 10% v/v DMSO and 10% v/v TWEEN 80. Each mouse received 50 mg/kg BA103, or vehicle, three times per week.
Figure 9 Biological activity of BA103 in xenograft models of GBM. (A–D) Mice were inoculated s.c. with U87 cells, randomly distributed in two groups (CTR and BA103), and treated according to the protocol shown in panel (A). Tumor growth was monitored by measuring tumor volume (B), and at the end point, tumors were weighed, and the resulting mean values for each group are reported in the histogram (C). Recovered tumor masses were processed for analysis of DDX3X expression by immunohistochemistry, and representative images acquired at 400× magnification are shown in panel (D). (E) Survival curve from in vivo orthotopic model of GBM. […] Mice were monitored for two months after U87 cells inoculation. […]

DU-145 = assay: MTS cytotoxicity assay, DU-145 cells; type: cell-based; settings: DU-145, 72 h
Protocol: For CellTiter 96® Aqueous One Solution Cell Proliferation Assay (MTS) (Promega, Madison, WI, USA), cells were seeded at 5 × 10^3 per well in 96-well plates in quadruplicate together a control with no cells to evaluate the background. After 24 h, the culture medium was removed, and fresh medium containing increasing concentrations of chemical compounds was added to cells. The fixed final concentrations were 0.1 μM, 1 μM, 10 μM, and 100 μM. DMSO was the vehicle used for dilution of the compounds, and its final concentration on cells was less than 0.2%. Medium-only containing wells were included as controls. […] After 3 h at 37 °C in a humidified, 5% CO2 atmosphere, the absorbance at 492 nm was recorded using an EZREAD400 (Biochrom, Cambridge, United Kingdom) plate reader. The average 490 nm absorbance from the “no cell” control wells was subtracted from all other values to yield background-corrected absorbance. Dose–response curves and CC50 values have been calculated by plotting the absorbance data as a function of inhibitor concentrations and fitting the data by least-squares nonlinear regression, according to the method of Marquardt–Levenberg, with the computer program GraphPad Prism 6.0.
Cells were incubated with a scalar concentration of DDX3X inhibitors, and after 72 h of treatment, cell viability was assessed by cytotoxicity assay. […]

Q: Which results are given for `CCCCc1cn(-c2ccc(NC(=O)Nc3ccccc3C(F)(F)F)cc2)nn1` [BA103, 1-(4-(4-Butyl-1H-1,2,3-triazol-1-yl)phenyl)-3-(2-(trifluoromethyl)phenyl)urea]?
A: mice alive at the endpoint [1]: seven out of eight; CC50 (DU-145): low micromolar range
